Results from US20230151432A1, “KIF18A INHIBITORS FOR TREATMENT OF NEOPLASTIC DISEASES” (AMGEN INC., priority 2020, published 2023).
Like-named read-outs stand apart in the source and are kept apart here.

Assays:
[1] = tested on: human bone marrow mononuclear cells (HBMNC); assay: BrdU cell cycle analysis and live cell count in normal cells; format: cell-based
Method: (§1) The effect KIF18A inhibitor treatment has on proliferation of normal somatic cells (e.g., not neoplastic cells) was tested by assaying proliferation of human bone marrow mononuclear cells (HBMNCs), primary human foreskin fibroblast cells (hFSF) and human mammary epithelial cells via a 5-bromo-2′-deoxyuridine (BrdU) incorporation assay in which BrdU, an analog of the nucleoside thymidine, is used to identify proliferating cells (Payton et. al., Molecular Cancer Therapeutics, 17(12):2575-85 (2018)). Cells were analyzed on BD LSRFortessa flow cytometer using BD FACSDiva software (BD Biosciences), and post-acquisition data analysis was performed using FSC-Express software (De Novo). The percentage of BrdU positive gated events on the stacked DNA content histograms were reported.
To further examine the effects of KIF18A inhibitor treatment on HBMNC, two normal donors were assessed using the BrdU coupled cell cycle assay and cell count assay (96 hours) was. […] In particular, the amount of BrdU-stained proliferating cells treated with Ispinesib, paclitaxel, or a CDK 4/6 inhibitor (palbociclib) was far less than the amount of vehicle control-treated BrdU-stained cells. […] KIF18A inhibitor treatment was also analyzed for impact on live cell count. After 96 hours, live cells were counted by Vi-CELL XR Cell Viability Analyzer (Beckman Coulter).
To investigate whether KIF18A inhibitors could circumvent this normal cell toxicity barrier, we examined the effects of Compounds C9 and C11 on a panel of cycling normal somatic cell types. First, we treated human bone marrow mononuclear cells (HBMNC) from two normal donors with DMSO, Compound C9 and C11 at 1 μM, ispinesib at 0.05 μM, paclitaxel at 0.05 μM, or palbociclib at 1 μM for 48 h (cell cycle) or 96 h (cell growth).
BrdU and cell cycle analysis. Human bone marrow mononuclear cells (HBMNCs) from two normal donors (#37612, #37534) were cultured for 8 days in defined media as previously described (Payton et al 2018). HBMNCs were seeded in 24-well plate at 1.2×10^6 cells per well in duplicate plates. Cells were treated with DMSO, Compound C9 (1 μM), Compound C11 (1 μM), ispinesib (0.05 μM), paclitaxel ([…]), or palbociclib (1 μM). Cells were collected at 48 h (cell cycle) and 96 h (cell growth). The first set of plates were pulsed with BrdU for 2 h and processing for BrdU cell cycle analysis as previously described (Payton et al 2018). Cells were analyzed on BD LSRFortessa flow cytometer running BD FACSDiva software and post-acquisition data analysis was performed using FSC-Express software. Data was reported for the percentage of BrdU and subG1 gated populations. The second set of plates were collected, and cells counted using Vi-CELL XR Cell Viability Analyzer (Beckman Coulter).

[2] = tested on: human mammary epithelial cells (HMEC); assay: BrdU incorporation assay in normal cells; format: cell-based; conditions: 48 hours
Method: as §1

[3] = tested on: human foreskin fibroblast (hFSF) cells; assay: BrdU incorporation assay in normal cells; format: cell-based; conditions: 48 hours
Method: as §1

[4] = target: T1, Recombinant human KIF18A (1-467 His-tagged) protein (Homo sapiens, UniProt Q8NI77); assay: KIF18A Enzyme Assay (microtubule-stimulated ATPase activity, ADP-Glo); format: biochemical; conditions: 30 nM KIF18A, 75 μM ATP
T1 construct: Recombinant human KIF18A (1-467 His-tagged) protein; His; made in house
Method: KIF18A Enzyme Assay: Microtubule-stimulated ATPase activity assay was used to measure KIF18A enzyme activity after treatment with compound. Compounds were 2-fold serially diluted in DMSO (Sigma Inc) over 22-point concentration range. […] The assay measures ADP formed from the ATPase reaction.
Concentration-response curve-fitting and IC50 determination was performed using Genedata Screener Software (Standard 15.0.1, Genedata Inc) with a four-parameter logistic regression fit model.

[5] = tested on: OVCAR-8 NCI/ADR-RES cells; assay: Nuclear count assay in multidrug resistant cells, with or without P-gp inhibitor; format: cell-based, human; conditions: 4-day NCA; for EC50: Homo sapiens, 96 h, read-out: EC50 (Count POC)
Method: Compound was added to the cells with a final volume of 200 μL in complete media containing 0.5% DMSO.
The plates were sealed and incubated for 1 hour at room temperature in the dark. Cells were stored at 4° C. in the dark until data acquisition. […] The Total Valid Object Count was represented as a Count POC (Percentage of DMSO Control) using the following formula:
Briefly, OVCAR-8 cells were seeded in duplicate in a Corning 96-well Flat Clear Bottom Black Polystyrene plates (Corning, N.Y.) in 100 μL of appropriate complete media at the appropriate density and grown for 24 hours. […] After 4 days (96 hours) of treatment, the cells were fixed by removing 100 μL of complete media from each well and replacing it with 100 μL of 2×formaldehyde (final 4%) and incubating the plates for 15 minutes at room temperature. […] The plates were sealed and incubated for 1 hour at room temperature in the dark. Cells were stored at 4° C. in the dark until data acquisition. […] The Total Valid Object Count was represented as a Count POC (Percentage of DMSO Control) using the following formula:
Count POC=(Total Valid Object Count in treated well)[…](Total Valid Object Count in DMSO treated wells)×100
Compound concentration and Count POC values were plotted using GraphPad Prism software (V7.0.4) and curve-fitting was performed with 4-parameter equation (variable slope). The concentration-response curves and standard deviation represent two independent experiments run in duplicate.

T1 sequence (Q8NI77 1-467): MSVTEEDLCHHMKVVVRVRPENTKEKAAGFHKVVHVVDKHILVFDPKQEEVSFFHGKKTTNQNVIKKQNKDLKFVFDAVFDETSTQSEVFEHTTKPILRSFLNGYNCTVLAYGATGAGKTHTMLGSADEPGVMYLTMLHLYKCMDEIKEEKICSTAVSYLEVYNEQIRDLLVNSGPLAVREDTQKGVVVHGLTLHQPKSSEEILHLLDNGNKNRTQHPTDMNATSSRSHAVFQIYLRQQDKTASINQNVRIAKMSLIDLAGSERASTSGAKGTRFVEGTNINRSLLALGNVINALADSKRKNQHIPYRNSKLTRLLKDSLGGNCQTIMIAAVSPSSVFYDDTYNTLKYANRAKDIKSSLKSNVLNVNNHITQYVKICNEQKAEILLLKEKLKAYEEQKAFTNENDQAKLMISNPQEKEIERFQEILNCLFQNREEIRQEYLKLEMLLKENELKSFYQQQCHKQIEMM
T1 sequence (P02550 whole entry partner): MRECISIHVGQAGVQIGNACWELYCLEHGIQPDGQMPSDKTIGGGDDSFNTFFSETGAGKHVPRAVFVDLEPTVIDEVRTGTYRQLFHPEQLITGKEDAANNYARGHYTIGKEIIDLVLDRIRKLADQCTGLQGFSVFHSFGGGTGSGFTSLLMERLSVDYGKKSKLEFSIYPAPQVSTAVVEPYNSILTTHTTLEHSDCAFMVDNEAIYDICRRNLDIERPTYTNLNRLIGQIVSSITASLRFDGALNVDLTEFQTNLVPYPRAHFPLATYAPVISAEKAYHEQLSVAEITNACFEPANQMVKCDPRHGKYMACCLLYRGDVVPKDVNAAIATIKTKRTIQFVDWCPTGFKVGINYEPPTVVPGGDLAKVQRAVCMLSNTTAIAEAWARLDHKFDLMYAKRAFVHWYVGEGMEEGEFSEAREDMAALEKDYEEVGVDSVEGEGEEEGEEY
T1 sequence (P02554 whole entry partner): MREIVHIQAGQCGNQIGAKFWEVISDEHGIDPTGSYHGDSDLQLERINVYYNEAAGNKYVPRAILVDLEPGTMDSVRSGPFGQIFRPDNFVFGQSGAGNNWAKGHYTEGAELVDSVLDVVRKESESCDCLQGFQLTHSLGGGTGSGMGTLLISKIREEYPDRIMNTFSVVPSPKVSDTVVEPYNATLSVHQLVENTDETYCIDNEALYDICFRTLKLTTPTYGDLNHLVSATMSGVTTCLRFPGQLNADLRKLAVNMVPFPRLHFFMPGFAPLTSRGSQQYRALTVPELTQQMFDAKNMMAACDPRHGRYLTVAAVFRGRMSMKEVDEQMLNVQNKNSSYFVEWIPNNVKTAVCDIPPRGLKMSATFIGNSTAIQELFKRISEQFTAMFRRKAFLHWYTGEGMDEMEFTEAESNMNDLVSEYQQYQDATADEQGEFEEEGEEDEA

## CC(=O)c1c(C)c2cnc(Nc3ccc(N4CCNCC4)cn3)nc2n(C2CCCC2)c1=O [Palbociclib]
[1]
  live cell count relative to vehicle control: lower cell count
[2]
  BrdU incorporation relative to DMSO treated cells: decrease in BrdU incorporation
[3]
  BrdU incorporation relative to DMSO treated cells: decrease in BrdU incorporation

## Cc1cc(NC(=O)c2ccc(NS(=O)(=O)[C@H](C)CO)cc2N2CCC3(CC2)CC3)nc(N2CCC(F)(F)CC2)n1 (single isomer, unassigned) [Compound C5]
[4]
  IC50: 62 nM

## Cc1cc(NC(=O)c2ccc(NS(=O)(=O)[C@@H](C)CO)cc2N2CCC3(CC2)CC3)nc(N2CCC(F)(F)CC2)n1 (single isomer, unassigned) [Compound C6]
[4]
  IC50: 70 nM

## CC(=O)O[C@H]1C(=O)[C@@]2(C)[C@H]([C@H](OC(=O)c3ccccc3)[C@]3(O)C[C@H](OC(=O)[C@H](O)[C@@H](NC(=O)c4ccccc4)c4ccccc4)C(C)=C1C3(C)C)[C@]1(OC(C)=O)CO[C@@H]1C[C@@H]2O [Paclitaxel]
[1]
  live cell count relative to vehicle control: lower cell count
[5]; GF120918 1 μM
  fold change in potency in the presence vs in the absence of the P-gp inhibitor: greater than 500 fold
[5]; absence of the P-gp inhibitor
  EC50: > 1000 nM
[5]; presence of P-gp inhibitor GF120918 (1 μM)
  EC50: 1.7 nM

## CC(C)(C)NS(=O)(=O)c1cccc(NC(=O)c2ccc(S(=O)(=O)C3(C)COC3)cc2N2CCC3(CC2)CC3)c1 [Compound C8, N-(3-(N-(tert-Butyl)sulfamoyl)phenyl)-4-((3-methyloxetan-3-yl)sulfonyl)-2-(6-azaspiro[2.5]octan-6-yl)benzamide]
[4]
  IC50: 61 nM

## Cc1cc(NC(=O)c2ccc([S@](=N)(=O)C3CC3)cc2N2CCC3(CC2)CC3)nc(N2CCC(F)(F)CC2)n1 (single isomer, unassigned) [Compound C1, 2-(6-Azaspiro[2.5]octan-6-yl)-4-(R-cyclopropylsulfonimidoyl)-N-(2-(4,4-difluoro-1-piperidinyl)-6-methyl-4-pyrimidinyl)benzamide]
[4]
  IC50: 64 nM

## CC(C)(C)NS(=O)(=O)c1cccc(NC(=O)c2ccc(NC(C)(C)CO)nc2N2CCC3(CC2)CC3)c1 [Compound C10, N-(3-(N-(tert-Butyl)sulfamoyl)phenyl)-6-((1-hydroxy-2-methylpropan-2-yl)amino)-2-(6-azaspiro[2.5]octan-6-yl)nicotinamide]
[4]
  IC50: 70 nM

## Cc1cc(NC(=O)c2ccc(S(=N)(=O)C3CC3)cc2N2CCC3(CC2)CC3)nc(N2CCC(F)(F)CC2)n1 (single isomer, unassigned) [Compound C2, 2-(6-azaspiro[2.5]octan-6-yl)-4-(S-cyclopropylsulfonimidoyl)-N-(2-(4,4-difluoro-1-piperidinyl)-6-methyl-4-pyrimidinyl)benzamide]
[4]
  IC50: 57 nM
